What was measured:
HBV [1] = test: Anti-HBV activity, HepG2.117 inducibly HBV producing cell line (Tet-off), intracellular HBV DNA by realtime PCR; assay type: cell-based; settings: Hepatitis B virus, HepG2.117, 72 h
[2] = Cytotoxicity in HepG2 cells, Resazurin viability assay; settings: human
HBV [3] = test: Anti-HBV activity, HepG2.2.15 stable transfected cell line, HBV DNA from secreted virions by realtime PCR; assay type: cell-based; settings: Hepatitis B virus, HepG2.2.15, 144 h
[4] = HepG2.117 cells, 3 days of treatment, intracellular HBV DNA, read-out: HepG2 117 EC50
[5] = HepG2 cells, HepG2 4 days CC50 (μM), incubated for 4 days, Resazurin assay
[6] = HepG2.2.15 cells, 6 days of treatment, HBV DNA from secreted virions, read-out: HepG2 2.15 EC50

## Cn1cc(S(=O)(=O)NC2(C(F)(F)F)CCC2)cc1C(=O)Nc1cc(F)c(F)c(Cl)c1 [Compound 189, N-(3-Chloro-4,5-difluorophenyl)-1-methyl-4-{[1-(trifluoromethyl)-cyclobutyl]sulfamoyl}-1H-pyrrole-2-carboxamide]
HBV [1]; [4]
  EC50: 0.007 µM
[2]; [5]
  CC50 at 4 days: 11.3 µM
HBV [3]; [6]
  EC50: 0.007 µM

## Cn1cc(S(=O)(=O)NC(C)(C)C)c(Cl)c1C(=O)Nc1ccc(F)c(F)c1 [Compound 223, 4-(tert-Butylsulfamoyl)-3-chloro-N-(3,4-difluorophenyl)-1-methyl-1H-pyrrole-2-carboxamide]
HBV [1]; [4]
  EC50: 0.09 µM
[2]; [5]
  CC50 at 4 days: > 25 µM
HBV [3]; [6]
  EC50: 0.12 µM

## Cc1cc(NC(=O)c2cc(S(=O)(=O)N[C@H]3CCOC3)cn2C)ccc1F [Compound 4, N-(4-fluoro-3-methyl-phenyl)-1-methyl-4-[[(3S)-tetrahydrofuran-3-yl]-sulfamoyl]pyrrole-2-carboxamide]
HBV [1]; [4]
  EC50: 0.06 µM
[2]; [5]
  CC50 at 4 days: > 25 µM
HBV [3]; [6]
  EC50: 0.1 µM

## CCC(CC)(NS(=O)(=O)c1cc(C(=O)Nc2ccc(F)c(C#N)c2)n(C)c1)C(F)(F)F [Compound 248, N-(3-cyano-4-fluoro-phenyl)-4-{[1-ethyl-1-(trifluoromethyl)propyl]sulfamoyl}-1-methyl-1H-pyrrole-2-carboxamide]
HBV [1]; [4]
  EC50: 0.07 µM
[2]; [5]
  CC50 at 4 days: > 25 µM
HBV [3]; [6]
  EC50: 0.03 µM

## Cn1cc(S(=O)(=O)NC2(C)CC(F)(F)C2)cc1C(=O)Nc1cc(F)c(F)c(Cl)c1 [Compound 65, N-(3-chloro-4,5-difluoro-phenyl)-4-[(3,3-difluoro-1-methyl-cyclo-butyl)sulfamoyl]-1-methyl-pyrrole-2-carboxamide]
HBV [1]; [4]
  EC50: 0.01 µM
[2]; [5]
  CC50 at 4 days: > 25 µM
HBV [3]; [6]
  EC50: 0.01 µM

## Cc1cc(NC(=O)c2cc(S(=O)(=O)NC3(CO)COC3)cn2C)ccc1F [Compound 10, N-(4-fluoro-3-methyl-phenyl)-4-[[3-(hydroxymethyl)oxetan-3-yl]sulfamoyl]-1-methyl-pyrrole-2-carboxamide]
HBV [1]; [4]
  EC50: 0.08 µM
[2]; [5]
  CC50 at 4 days: > 25 µM
HBV [3]; [6]
  EC50: 0.11 µM

## Cn1cc(S(=O)(=O)NC2(C(F)(F)F)CCCC2)c(F)c1C(=O)Nc1ccc(F)c(C#N)c1 [Compound 281, N-(3-cyano-4-fluoro-phenyl)-3-fluoro-1-methyl-4-[[1-(trifluoro-methyl)cyclopentyl]sulfamoyl]pyrrole-2-carboxamide]
HBV [1]; [4]
  EC50: 0.007 µM
[2]; [5]
  CC50 at 4 days: > 25 µM
HBV [3]; [6]
  EC50: < 0.004 µM

## Cn1cc(S(=O)(=O)NC(C)(C)C)cc1C(=O)Nc1cccc(Cl)c1F [Compound 193, 4-(tert-Butylsulfamoyl)-N-(3-chloro-2-fluorophenyl)-1-methyl-1H-pyrrole-2-carboxamide]
HBV [1]; [4]
  EC50: 0.11 µM
[2]; [5]
  CC50 at 4 days: > 25 µM
HBV [3]; [6]
  EC50: 0.14 µM

## Cn1cc(S(=O)(=O)NC2(C)COC2)cc1C(=O)Nc1ccc(C#N)c(C(F)(F)F)c1 [Compound 51, N-[4-cyano-3-(trifluoromethyl)phenyl]-1-methyl-4-[(3-methyloxetan-3-yl)-sulfamoyl]-1H-pyrrole-2-carboxamide]
HBV [1]; read-out: HepG2 117 EC50 (μM)
  EC50: > 1 µM
[2]
  CC50 at 4 days: > 25 µM
HBV [3]; read-out: HepG2 2.15 EC50 (μM)
  EC50: > 1 µM

## CC[C@H](NS(=O)(=O)c1cc(C(=O)Nc2ccc(F)c(Cl)c2F)n(C)c1)C(F)(F)F [Compound 262, N-(3-chloro-2,4-difluoro-phenyl)-1-methyl-4-{[(1S)-1-(trifluoro-methyl)propyl]sulfamoyl}-1H-pyrrole-2-carboxamide]
HBV [1]; [4]
  EC50: 0.02 µM
[2]; [5]
  CC50 at 4 days: > 25 µM
HBV [3]; [6]
  EC50: 0.02 µM

## C[C@@H](NS(=O)(=O)c1cc(C(=O)Nc2cc(F)c(F)c(Cl)c2)n(C)c1)C(F)(F)F [Compound 60, N-(3-chloro-4,5-difluoro-phenyl)-1-methyl-4-[[(1R)-2,2,2-trifluoro-1-methyl-ethyl]sulfamoyl]pyrrole-2-carboxamide]
HBV [1]; [4]
  EC50: 0.03 µM
[2]; [5]
  CC50 at 4 days: 24.1 µM
HBV [3]; [6]
  EC50: 0.02 µM

## Cn1cc(S(=O)(=O)NCC(F)F)cc1C(=O)Nc1cc(F)c(F)c(Cl)c1 [Compound 130, N-(3-Chloro-4,5-difluorophenyl)-4-[(2,2-difluoroethyl)sulfamoyl]-1-methyl-1H-pyrrole-2-carboxamide]
HBV [1]; [4]
  EC50: 0.15 µM
[2]; [5]
  CC50 at 4 days: > 25 µM
HBV [3]; [6]
  EC50: 0.09 µM

## Cc1cc(NC(=O)c2cc(S(=O)(=O)NC3(C)COC3)cn2C)ccc1C#N [Compound 83]
HBV [1]; [4]
  EC50: 1.35 µM
[2]; [5]
  CC50 at 4 days: > 25 µM
HBV [3]; [6]
  EC50: > 1 µM

## Cc1cc(NC(=O)c2cc(S(=O)(=O)N[C@H]3C[C@@H](O)C3)cn2C)ccc1F [Compound 15, N-(4-fluoro-3-methyl-phenyl)-4-[(3-hydroxycyclobutyl)sulfamoyl]-1-methyl-pyrrole-2-carboxamide]
HBV [1]; [4]
  EC50: 0.13 µM
[2]; [5]
  CC50 at 4 days: > 25 µM
HBV [3]; [6]
  EC50: 0.16 µM

## Cc1c(S(=O)(=O)N[C@H](C)C(F)(F)F)cc(C(=O)Nc2ccc(F)c(Cl)c2)n1C [Compound 138, N-(3-Chloro-4-fluorophenyl)-1,5-dimethyl-4-{[(1R)-2,2,2-trifluoro-1-methylethyl]sulfamoyl}-1H-pyrrole-2-carboxamide]
HBV [1]; [4]
  EC50: 0.03 µM
[2]; [5]
  CC50 at 4 days: > 25 µM
HBV [3]; [6]
  EC50: 0.1 µM

## Cn1cc(S(=O)(=O)NC(C)(C)C(F)(F)F)c(Cl)c1C(=O)Nc1ccc(F)c(C#N)c1 [Compound 270, 3-Chloro-N-(3-cyano-4-fluorophenyl)-1-methyl-4-[(2,2,2-trifluoro-1,1-dimethylethyl)sulfamoyl]-1H-pyrrole-2-carboxamide]
HBV [1]; [4]
  EC50: 0.11 µM
[2]; [5]
  CC50 at 4 days: > 25 µM
HBV [3]; [6]
  EC50: 0.06 µM

## COC(=O)C(C)(C)NS(=O)(=O)c1cc(C(=O)Nc2ccc(F)c(C)c2)n(C)c1 [Compound 49, methyl 2-[[5-[(4-fluoro-3-methyl-phenyl)carbamoyl]-1-methyl-pyrrol-3-yl]sulfonylamino]-2-methyl-propanoate]
HBV [1]; [4]
  EC50: 0.02 µM
[2]; [5]
  CC50 at 4 days: > 25 µM
HBV [3]; [6]
  EC50: 0.07 µM

## COCc1c(S(=O)(=O)N[C@H](C)C(F)(F)F)c(F)c(C(=O)Nc2ccc(F)c(C#N)c2)n1C [Compound 309, N-(3-cyano-4-fluoro-phenyl)-3-fluoro-5-(methoxymethyl)-1-methyl-4-[[(1R)-2,2,2-trifluoro-1-methyl-ethyl]sulfamoyl]pyrrole-2-carboxamide]
HBV [1]; [4]
  EC50: 0.32 µM
[2]; [5]
  CC50 at 4 days: > 25 µM
HBV [3]; [6]
  EC50: 0.53 µM

## Cn1cc(S(=O)(=O)NC2(C(F)(F)F)CC2)cc1C(=O)Nc1ccc(F)c(Cl)c1F [Compound 253, N-(3-chloro-2,4-difluoro-phenyl)-1-methyl-4-{[1-(trifluoromethyl)-cyclopropyl]sulfamoyl}-1H-pyrrole-2-carboxamide]
HBV [1]; [4]
  EC50: 0.01 µM
[2]; [5]
  CC50 at 4 days: > 25 µM
HBV [3]; [6]
  EC50: 0.01 µM

## Cc1c(S(=O)(=O)N[C@H](C)C(F)(F)F)cn(C)c1C(=O)Nc1ccc(F)c(C(F)(F)F)c1 [Compound 153, N-[4-Fluoro-3-(trifluoromethyl)phenyl]-1,3-dimethyl-4-{[(1R)-2,2,2-trifluoro-1-methylethyl]sulfamoyl}-1H-pyrrole-2-carboxamide]
HBV [1]; [4]
  EC50: 0.15 µM
[2]; [5]
  CC50 at 4 days: > 25 µM
HBV [3]; [6]
  EC50: 0.27 µM

## C[C@@H](NS(=O)(=O)c1cn(C)c(C(=O)Nc2ccc(F)c(C(F)(F)F)c2)c1Cl)C(F)(F)F [Compound 274, 3-chloro-N-[4-fluoro-3-(trifluoromethyl)phenyl]-1-methyl-4-[[(1R)-2,2,2-trifluoro-1-methyl-ethyl]sulfamoyl]pyrrole-2-carboxamide]
HBV [1]; [4]
  EC50: 0.04 µM
[2]; [5]
  CC50 at 4 days: 19.4 µM
HBV [3]; [6]
  EC50: 0.02 µM

## CC[C@@H](C)NS(=O)(=O)c1cc(C(=O)Nc2cc(C)c(F)c(F)c2)n(C)c1 [Compound 34, N-(3,4-difluoro-5-methyl-phenyl)-1-methyl-4-[[(1R)-1-methylpropyl]-sulfamoyl]pyrrole-2-carboxamide]
HBV [1]; [4]
  EC50: < 0.02 µM
[2]; [5]
  CC50 at 4 days: > 25 µM
HBV [3]; [6]
  EC50: 0.03 µM

## Cc1cc(NC(=O)c2cc(S(=O)(=O)NC3CC(=O)N(C)C3)cn2C)ccc1F (stereo not drawn) [Compound 13, N-(4-fluoro-3-methyl-phenyl)-1-methyl-4-[(1-methyl-5-oxo-pyrrolidin-3-yl)sulfamoyl]pyrrole-2-carboxamide]
HBV [1]; [4]
  EC50: 0.14 µM
[2]; [5]
  CC50 at 4 days: > 25 µM
HBV [3]; [6]
  EC50: 0.46 µM

## Cn1cc(S(=O)(=O)NC(C)(C)C(F)(F)F)cc1C(=O)Nc1cc(F)c(F)c(Cl)c1 [Compound 96, N-(3-Chloro-4,5-difluorophenyl)-1-methyl-4-[(2,2,2-trifluoro-1,1-dimethylethyl)sulfamoyl]-1H-pyrrole-2-carboxamide]
HBV [1]; [4]
  EC50: 0.03 µM
[2]; [5]
  CC50 at 4 days: 23.7 µM
HBV [3]; [6]
  EC50: 0.01 µM

## Cn1cc(S(=O)(=O)NC23CC(C2)C3)cc1C(=O)Nc1cc(F)c(F)c(Cl)c1 [Compound 167, 4-(Bicyclo[1.1.1]pent-1-ylsulfamoyl)-N-(3-chloro-4,5-difluorophenyl)-1-methyl-1H-pyrrole-2-carboxamide]
HBV [1]; [4]
  EC50: 0.31 µM
[2]; [5]
  CC50 at 4 days: > 25 µM
HBV [3]; [6]
  EC50: 0.12 µM

## Cn1cc(S(=O)(=O)NC(C)(C)C)cc1C(=O)Nc1ccc(F)c(Cl)c1 [Compound 195, 4-(tert-Butylsulfamoyl)-N-(3-chloro-4-fluorophenyl)-1-methyl-1H-pyrrole-2-carboxamide]
HBV [1]; [4]
  EC50: 0.04 µM
[2]; [5]
  CC50 at 4 days: > 25 µM
HBV [3]; [6]
  EC50: 0.04 µM

## Cn1cc(S(=O)(=O)NC(CF)CF)cc1C(=O)Nc1ccc(F)c(Cl)c1F [Compound 264, N-(3-chloro-2,4-difluoro-phenyl)-4-{[2-fluoro-1-(fluoromethyl)-ethyl]sulfamoyl}-1-methyl-1H-pyrrole-2-carboxamide]
HBV [1]; [4]
  EC50: 0.13 µM
[2]; [5]
  CC50 at 4 days: > 25 µM
HBV [3]; [6]
  EC50: 0.09 µM

## Cc1cc(NC(=O)c2cc(S(=O)(=O)NC(C)C)cn2C)ccc1F [Compound 2, N-(4-fluoro-3-methyl-phenyl)-4-(isopropylsulfamoyl)-1-methyl-pyrrole-2-carboxamide]
HBV [1]; [4]
  EC50: 0.06 µM
[2]; [5]
  CC50 at 4 days: > 25 µM
HBV [3]; [6]
  EC50: 0.03 µM

Source: US9884818B2, “Sulphamoylpyrrolamide derivatives and the use thereof as medicaments for the treatment of hepatitis B” (Janssen Sciences Ireland UC, priority 2013, dated 2018)
